Reference: patent publication US9486472B2, “Methods for modulating neuronal responses” (UNIVERSITY OF BRITISH COLUMBIA CANADA, priority 2003, dated 2016)
No end group written: not given here.

Key:
Sprague-Dawley rats = test: Transient focal ischemia model (MCA occlusion), TUNEL staining and neurological exam; assay type: in vivo, rat; settings: 10 min prior to MCA occlusion; 3 nmoles/g
Protocol: The procedure was performed essentially as described previously (70). Briefly, adult male Sprague-Dawley rats between 280 and 320 g (20 h fasted weight) were anesthetized with an inhaled mixture of 4% isofluorane, in 30% oxygen balanced nitrous oxide, and maintained on 1.5% isofluorane. Bronchial secretions were minimized by administering 0.5 mg/kg of atropine intraperitoneally. […] The experimenter was blinded to the identity of the treatment groups for all surgeries and down-stream experiments. Under a dissection microscope, the common carotid artery (CCA), external carotid artery (ECA), and internal carotid artery (ICA) were exposed and dissected. […] Rectal temperature, and blood pressure measured with a tail cuff were measured before treatment, 15 min post injection, 50 min post injection, and 15 min post MCA occlusion. The plasma pH, O2, and CO2 were measured with a Rapidlab™ 348 blood gas analyzer (Bayer Diagnostics) in some animals to ensure that the gas flow rates used were appropriate and yielded reproducible blood gases. […]
At day 1 post MCAo rats were anesthetized with 1.5 mL of 25% urethane and were perfused with 100 mL of 0.9% saline followed by 120 mLs of 4% paraformaldehyde in PBS. […] The slices were scored for number of cells that stained positive for TMR-TUNEL per field of view at 10× magnification. […]

rats [1] = settings: IV 60 min prior to test session; versus saline
Protocol: A. Rats maintained on a restricted feeding schedule were trained to lever-press for food pellets (45 mg) on a fixed-ratio 2 (FR2) schedule during 2-hour test sessions. Rats received IV injections of saline, GluR2-3A, or GluR2-3Y, in a counterbalanced order, 60 min prior to the test session. […] B. Rats were first trained to self-administer d-amphetamine (0.2 mg/infusion) via a jugular catheter on an FR2 schedule of reinforcement. Once responding in the 3 hour test sessions had stabilized, the rats were then trained on a Progressive Ratio Schedule in which successively more responses were required to obtain each successive reinforcement. […] Once stable Break point values were established, rats received IV injections of saline, GluR2-3A, or GluR2-3Y, in a counterbalanced order, 60 min prior to the test session.

[2] = Dose tolerance to serial doses, vital parameters monitored; assay type: in vivo, Sprague-Dawley rats
Protocol: FIG. 15. Dose tolerance curve to serial doses of Tat-GluR2-3Y. Two adult male Sprague-Dawley rats were given serial doses of Tat-GluR2-3Y and the basic vital parameters were monitored.
In order to determine the maximum dose that could be administered without adverse reaction, two male Sprague Dawley rats were injected with serial doses of Tat-GluR2-3Y ranging from 0.5 nmoles/g to 30 nmoles/g and basic vital parameters were monitored. […] Assuming complete dispersion of the peptide in the animal, this dose corresponds roughly to a concentration of 3 μM.

rats [3] = test: Behavioural sensitization to d-amphetamine (stereotypy scores); assay type: in vivo, rat; settings: one hour intravenous pre-treatment
Protocol: To induces behaviour sensitization to addictive drugs that lead to substance abuse, four separate groups of adult rats were given repetitive injections of damphetamine (2 mg/kg, intraperitoneally (IP)) or saline, every other day for a total of 10 injections. On days 1, 5 and 10 of the injection regimen, the rats were placed in 2-level locomotor boxes for 30 min before the amphetamine injection to habituate to the boxes, and for an additional 2 hours following the injection, and stereotypy scores (drug-induced behaviours) were assessed at 1 minute intervals every 10 minutes for the duration of the 2 hour session. After the 10th injection of d-amphetamine, the rats were given 21 days off, and chronically indwelling catheters were implanted into the jugular vein under anaesthesia.
On day 21, the rats were pretreated with 1.5 nM/grTat-GluR2-3Y, or Tat-GluR2-3A or saline by either IV injection, or intracranial microinjection into the nucleus accumbens (Nac), and returned to their home cages for 60 min. The rats were then placed in the locomotor boxes (observation chambers) for 30 min and then treated with a challenge dose of d-amphetamine (2 mg/kg, IP). Stereotypy scores were then assessed as described (FIG. 12A), Points represent mean stereotypy scores (±S.E.M) for groups of rats over the 2 hour test session. […]

AMPAR = test: Quantification of AMPAR endocytosis in response to NMDA treatment (cellular ELISA), cortical neurons; assay type: cell-based, Wistar rat; settings: 50 μM NMDA + 10 μM glycine 30 min; peptide 1 μM, 60 min pretreatment; control 69%
Protocol: The cortex was dissected from 18 days in utero Wistar embryos and was treated with trypsin-EDTA for 15 min at 37° C. The cells were then washed 3 times and triturated to a single cell suspension. The neurons with glia were then seeded at a density of ˜2.5×10^5 neurons/well in 12 well tissue culture plates coated with poly-D lysine. The cells were then cultured for 24-48 h in plating media (Gibco Neurobasal™, 1% FBS, 2% B-27 supplement, 0.5 mM […], and 25 μM glutamic acid), after which the cells were treated with Neurobasal™ maintenance media (NMM: Gibco Neurobasal™ Media+0.5 mM […], 2% B-27 supplement) with 10 μM 5-Fluoro-2′-deoxyuridine (FDU) to enrich the culture for neurons (−85%). After 24 h-48 h culture in FDU, the cells were maintained on NMM changed every 4 days.
Using cellular ELISA, the amount of intracellular versus extracellular AMPAR expression was measured allowing quantification of AMPAR endocytosis in response to NMDA insult. DIV 12-13 neurons were washed once with room temperature ECS. […] The absorbance at 492 nm was read using a μQuant plate reader (Bio-Tek Instruments Inc.). The data were analyzed by first subtracting the absorbance values for the no-primary controls from the other samples. The percentage AMPAR surface expression was then expressed as a ratio of the non-permeabilized samples to the permeabilized samples. […]

## YGRKKRRQRRRYKEGYNVYGIE [Tat-GluR2-3Y, YGRKKRRQRRR-YKEGYNVYGIE]
Sprague-Dawley rats
  mean arterial blood pressure (MABP) versus saline: significantly lower mean arterial blood pressure
Rats [1]
  Break Point measures for drug-reward: no significant differences in the Break Point measures for drug-reward
  total number of responses for food reward: no significant differences in total number of responses for food reward
[2]; both animals
  behaviour after revival from the dose response curve: showed no signs of mental depression or other behavioural changes
[2]; serial doses 0.5 to 30 nmoles/g, above: large decline in blood pressure, increase in breathing rate
  dose up to which the drug was tolerated: ~12 nmol/g
[2]; serial doses, anesthetized rats
  doses evoking little response in the vital parameters monitored: up to 6 nmoles/g
Rats [3]
  side effects: without any notable side effects

## CN[C@H](CC(=O)O)C(=O)O [NMDA, N-methyl-D-aspartate]
AMPAR
  AMPAR surface expression: 55%
